Source: patent US20030004128A1, “Formulatios of adenosine a1 agonists” (priority 1999, published 2003)

Experiments:
[1] = tested on: carrageenan-induced allodynia (decrease in weight bearing on the inflamed left hind paw); test: Carrageenan model, weight bearing on inflamed left hind paw (dual channel weight averager); format: in vivo, rat; conditions: for % Weight on inflamed paw (Allodynia): Table (A), 3 h after carrageenan, 50% = no pain; for % Inhibition Allodynia: versus vehicle control
Protocol: (§1) Male Random Hooded rats (180-220 g) were used. The test compound or vehicle was administered 30 mins before the 2nd test compound or vehicle. The test compound and vehicles used were: (i) Compound A in 1% DMSO, 66% Peg400, 33% distilled water and (ii) nabumetone in 1% DMSO, 66% Peg400, 33% distilled water. Both test compounds were administered via the oral route. After a further 30 mins 100 ul of 2% carrageenan was injected intraplantar into the left hind paw and the animals were then returned to their cages. Three hours later behavioural testing of the carrageenan-induced decrease in weight on the inflamed left hind paw (% weight on the inflammed left paw) and associated oedema was assessed. Weight bearing was measured using the dual channel weight averager and paw oedema was assessed using a plethysmometer. The dual channel weight averager is commercially available and is described in the following abstract: Validation of the dual channel weight averager as an instrument for the measurement of inflammatory pain, N. M. Clayton et al., 1997 British Journal Pharmacol. 120, 219P
(§2) Note: Oedema is the presence of abnormally large amounts of fluid in the intercellular tissue spaces of the body and in the present example is used to provide a measure of inflammation (or anti-oedemic). Allodynia is a sensation of pain resulting from a non-injurious stimulus such as normal heat, cold or pressure on skin and in the present example the weight-bearing (allodynia) effect in used to provide a measure of analgesia.
(§3) The methodology was as described for (a) above. The test compounds and vehicles used were: (i) Compound A in 1% DMSO, 66% Peg400, 33% distilled water and (ii) Compound B in 1% DMSO, 66% Peg400, 33% distilled water. Both compounds were administered via the oral route.

[2] = tested on: carrageenan-induced oedema; test: Carrageenan model, paw oedema (plethysmometer); format: in vivo, rat; conditions: versus vehicle control
Protocol: as §1, §2, §3

[3] = Table (B), experiment (a), Compound A 0.4 mg/kg oral
[4] = Table (C), experiment (b), Compound A 0.4 mg/kg oral
[5] = Table (C), experiment (b), Compound B 3 mg/kg oral
[6] = Table (B), experiment (a), nabumetone 3 mg/kg oral

## CC(C)(C)c1nnc([C@H]2O[C@@H](n3cnc4c(Nc5ccc(Cl)cc5F)ncnc43)[C@H](O)[C@@H]2O)o1 [Compound A, (2S, 3S, 4R, 5R)-2-(5 tert-butyl-[1,3,4]oxadiazol-2-yl)-5-[6-(4-chloro-2-fluoro-phenylamino)-purin-9-yl]-tetrahydro-furan-3,4-diol]
[1]; Compound A 0.4 mg/kg oral
  % Weight on inflamed paw (Allodynia): 25.4 ± 2.9%
[1]; [3]
  % Inhibition Allodynia: 17.0 ± 9.6%
[1]; [4]
  % Inhibition Allodynia: 47.9 ± 11.1%
[2]; [3]
  % Inhibition Oedema: −7.4 ± 5.7%
[2]; [4]
  % Inhibition Oedema: 24.9 ± 5.5%

## CCOc1ccc(-c2nn3ncccc3c2-c2ccc(S(C)(=O)=O)cc2)cc1 [Compound B, 2-(4-ethoxy-phenyl)-3-(4-methanesulfonyl-phenyl)-pyrazolo[1,5-b]pyridazine]
[1]; [5]
  % Inhibition Allodynia: 45.4 ± 8.9%
[2]; [5]
  % Inhibition Oedema: 35.8 ± 3.6%

## COc1ccc2cc(CCC(C)=O)ccc2c1 [Nabumetone, nabumetone, reference compound]
[1]; nabumetone 3 mg/kg oral
  % Weight on inflamed paw (Allodynia): 21.6 ± 3.6%
[1]; [6]
  % Inhibition Allodynia: 4.3 ± 12.2%
[2]; [6]
  % Inhibition Oedema: −25.1 ± 4.7%
